Patent US7576093B2, “Method of treatment of bone-related disorders or conditions” (AstraZeneca AB, priority 2006, dated 2009)

Legend:
GSK3β = biological target: T1, GSK3β (Mus musculus, UniProt Q9WV60); conditions: glucocorticoid-treated osteoblasts in culture, GSK3β inhibited; cited from earlier work
T1 construct: host or cells: osteoblasts in culture (endogenous protein)

Han Wistar rats = assay: Four-week oral rat study, light microscopy of bone sections (bone formation); type: in vivo
Protocol: The compound 3-amino-6-[4-(4-methylpiperazin-1-yl)sulfonylphenyl]-N-pyridin-3-ylpyrazine-2-carboxamide was formulated as a solution in water. Male and female Han Wistar rats were dosed by oral gavage, at dosages of 10, 30 or 60 μmol/kg/day for four weeks and compared to vehicle controls. Complete necropsies were performed and the tissues preserved in 10% formalin. The femur, femorotibial joint, sternum and hind paws were decalcified, embedded in paraffin, sectioned at 5 μm thickness and stained with hematoxylin and eosin.

osteocalcin = assay: Osteocalcin plasma levels in rats after 7 days oral dosing (ELISA); type: in vivo, rat; conditions: male Sprague Dawley rats, 30 μmol/kg/day orally for 7 days, 3 hours after last dose, vs vehicle
Protocol: (§1) In a separate rat study, the effect of the compound 3-amino-6-[4-(4-methylpiperazin-1-yl)sulfonylphenyl]-N-pyridin-3-ylpyrazine-2-carboxamide on osteocalcin levels, used as a marker for bone formation, was studied. Parathyroid hormone (PTH) and calcitonin levels were also analysed. The compound was formulated as a solution in water. Male Sprague Dawley rats were given 30 μmol/kg/day of the compound orally for 7 days and then compared to vehicle control rats. Blood samples were taken before the first drug administration at day 1, and 3 hours after the last dose at day 7. Osteocalcin plasma levels were measured using a commercial immunoassay (ELISA kit (catalogue # BT-490, Biomedical Technologies Inc. MA, USA)). Intact PTH levels were analyzed using a commercial ELISA kit (catalogue # 60-2700, Immutopics Inc. CA, USA). The calcitonin was measured in the following way, 200 μL plasma was precipitated with 1 mL acid ethanol, mixed vigorously and centrifuged for 15 min at 1500 g. The supernatant was decanted into a new tube and evaporated with a stream of nitrogen in a Turbo Vap. After reconstitution in assay buffer, calcitonin levels were analyzed using a commercial ELISA kit (catalogue # S-1197, Peninsula. Calif., USA).

[1] = test system: Parathyroid hormone (PTH); assay: Intact PTH plasma levels in rats after 7 days oral dosing (ELISA); type: in vivo, rat; conditions: male Sprague Dawley rats, 30 μmol/kg/day orally for 7 days, 3 hours after last dose, vs vehicle
Protocol: as §1

calcitonin = assay: Calcitonin plasma levels in rats after 7 days oral dosing (ELISA); type: in vivo, rat; conditions: male Sprague Dawley rats, 30 μmol/kg/day orally for 7 days, 3 hours after last dose, vs vehicle
Protocol: as §1

Sprague Dawley rats [2] = assay: Histopathology of bone in the 7-day rat study; type: in vivo; conditions: male Sprague Dawley rats, 30 μmol/kg/day orally for 7 days
Sprague Dawley rats [3] = assay: Trabecular bone mineral density of femur metaphysis by peripheral quantitative computed tomography after 14 days oral dosing; type: in vivo, rat; conditions: male Sprague Dawley rats, oral gavage 14 days, 3 μmol/kg twice daily or 30 μmol/kg once daily, every second or every fourth day; FIG. 5a-5c
Protocol: In a separate rat study, the effect of the compound 3-amino-6-[4-(4-methylpiperazin-1-yl)sulfonylphenyl]-N-pyridin-3-ylpyrazine-2-carboxamide on the bone mineral density (BMD) […]. The compound was formulated as a ultrapure solution in water (pH 3.5). The Male Sprague Dawley rats were dosed during 14 days by oral gavage. The study contained 4 dose groups with different dosing regimes and a vehicle control, namely 3 μmol/kg (twice daily) or 30 μmol/kg (once daily, once every second day or once every fourth day). Plasma samples were always taken 2 hrs after the oral dose was given in the morning. After 14 days, the rats were euthanized, and their right femurs were removed. The trabecular bone density of the femur metaphyses were measured utilizing peripheral quantitative computed Tomography method.

[4] = rat, 60 μmol/kg for 4 weeks, vs vehicle-treated control

T1 sequence (Q9WV60 whole entry): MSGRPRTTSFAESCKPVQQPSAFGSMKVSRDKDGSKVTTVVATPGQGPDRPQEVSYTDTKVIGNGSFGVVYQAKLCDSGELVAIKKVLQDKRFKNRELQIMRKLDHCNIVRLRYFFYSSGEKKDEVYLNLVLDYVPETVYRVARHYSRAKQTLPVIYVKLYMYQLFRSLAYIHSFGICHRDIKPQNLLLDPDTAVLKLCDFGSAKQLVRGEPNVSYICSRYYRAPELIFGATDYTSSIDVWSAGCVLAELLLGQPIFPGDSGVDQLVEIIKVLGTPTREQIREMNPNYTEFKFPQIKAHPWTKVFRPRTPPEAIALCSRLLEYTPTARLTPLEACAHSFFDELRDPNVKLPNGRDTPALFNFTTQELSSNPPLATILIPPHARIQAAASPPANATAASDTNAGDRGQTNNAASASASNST

In the case of `[Cl-].[Li+]` [lithium chloride], the “attenuated cell cycle and reduced c-Myc level in osteoblasts” value (GSK3β) is listed as “returned to normal”.
For `CN1CCN(S(=O)(=O)c2ccc(-c3cnc(N)c(C(=O)Nc4cccnc4)n3)cc2)CC1` [3-amino-6-[4-(4-methylpiperazin-1-yl)sulfonylphenyl]-N-pyridin-3-ylpyrazine-2-carboxamide], the “bone formation (thickened trabeculae, thickened cortical bone, periosteal hyperostosis, increased number of osteoblasts) by light microscopy” value (Han Wistar rats; male and female Han Wistar rats, oral gavage 10, 30 or 60 μmol/kg/day for four weeks, all dose levels, vs vehicle) was “increased bone formation”, the “formation of osteoid in femur (diaphysis), FIG. 1b” value (Han Wistar rats; [4]) was “marked increase in formation of osteoid” and the “formation of osteoid in femur (diaphysis), FIG. 1b (figure legend)” value (Han Wistar rats; [4]) was “marked increase in formation of osteoid”. For the same molecule, the Osteocalcin plasma levels (osteocalcin) was “significantly increased”, the PTH plasma levels [1] was “significantly increased” and the calcitonin plasma levels (calcitonin) was “significantly increased”. For the same molecule, the “bone formation, histopathologically” value (Sprague Dawley rats [2]) was “increased bone formation” and the “bone mineral density (BMD) in the trabeculae of the right femur metaphysis” value (“bone mineral density (BMD)” below) (Sprague Dawley rats [3]) was “BMD increases”.
In the case of `Nc1ncc(-c2ccc(S(=O)(=O)N3CCNCC3)cc2)nc1C(=O)Nc1cccnc1` [3-amino-6-(4-piperazin-1-ylsulfonylphenyl)-N-pyridin-3-ylpyrazine-2-carboxamide], the “bone mineral density (BMD)” value (Sprague Dawley rats [3]) is reported as “BMD increases”.
With `Nc1ncc(-c2ccc(S(N)(=O)=O)cc2)nc1C(=O)Nc1cccnc1` [3-amino-N-pyridin-3-yl-6-(4-sulfamoylphenyl)pyrazine-2-carboxamide] the “bone mineral density (BMD)” value (Sprague Dawley rats [3]) was “BMD increases”.
